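A five-concentration, 48-hour dose response in 96-well plates underlies each endpoint, interpolated linearly between surrounding concentrations. Abbreviation: GI50, concentration required for 50% inhibition of growth. Definition used: TGI = concentration required for complete inhibition of growth.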
How the values were obtained:
Experiment in all cases: NCI anticancer screen, dose series, 48 h
A549 NSCLC = tested on: A549 NSCLC
HOP-92 NSCLC = tested on: HOP-92 NSCLC
NCI-H226 lung = tested on: NCI-H226 lung
OVCAR-3 ovarian = tested on: OVCAR-3 ovarian
LOX IMVI melanoma = tested on: LOX IMVI melanoma
SW-620 colon = tested on: SW-620 colon
NCI-H460 lung = tested on: NCI-H460 lung
MOLT-4 leukemia = tested on: MOLT-4 leukemia
SNB-19 CNS = tested on: SNB-19 CNS
HS 578T breast = tested on: HS 578T breast

Row | SMILES | GI50 (A549 NSCLC) [µM] | TGI (A549 NSCLC) [µM] | GI50 (HOP-92 NSCLC) [µM] | TGI (HOP-92 NSCLC) [µM] | GI50 (NCI-H226 lung) [µM] | TGI (NCI-H226 lung) [µM] | GI50 (OVCAR-3 ovarian) [µM] | TGI (OVCAR-3 ovarian) [µM] | GI50 (LOX IMVI melanoma) [µM] | TGI (LOX IMVI melanoma) [µM] | GI50 (SW-620 colon) [µM] | TGI (SW-620 colon) [µM] | GI50 (NCI-H460 lung) [µM] | TGI (NCI-H460 lung) [µM] | GI50 (MOLT-4 leukemia) [µM] | TGI (MOLT-4 leukemia) [µM] | GI50 (SNB-19 CNS) [µM] | TGI (SNB-19 CNS) [µM] | GI50 (HS 578T breast) [µM] | TGI (HS 578T breast) [µM]
1 | Cc1ccc(N(CSc2ccc(Cl)cc2)CSc2ccc(Cl)cc2)cc1 | 0.448 | > 100 | 1.3 | 6.73 | 1.09 | 2.45 | 2.75 | 11.5 | 0.189 | 0.694 | 2.22 | 11.5 | 0.575 | > 100 | 0.381 | 2.63 | 1.48 | 19.8 |  | 
2 | O=C(CCC(=O)Nc1cccc(Cl)c1)CC(=O)c1ccc(Cl)cc1 |  | > 100 |  | > 100 |  | > 100 |  | > 100 |  | > 100 |  | > 100 |  | > 100 |  | > 100 |  | > 100 |  | 
3 | O=C(Nc1ccc([N+](=O)[O-])cc1)C1C(=O)C(=O)N(c2ccc([N+](=O)[O-])cc2)C1=O (centres undefined) |  | > 100 |  | > 100 |  | > 100 |  | > 100 |  | 30.3 |  | 33.9 |  | > 100 |  | > 100 |  | > 100 |  | 
4 | CCOC(=O)c1[nH]c(COC(C)=O)c(CCCOC(C)=O)c1CCCOC(C)=O |  | > 100 |  | > 100 |  | > 100 |  | > 100 |  | > 100 |  | > 100 |  | > 100 |  | > 100 |  | > 100 |  | 
5 | Nc1ccncc1/C=C1/C(=O)Nc2ccccc21 | 56.9 | > 100 |  |  | 40.5 | > 100 | 25.4 | 76.3 | 28 | > 100 | 31.4 | > 100 | 28.4 | > 100 | 37.3 | > 100 | 36.8 | > 100 | 41.2 | > 100
6 | COc1ccccc1NC(=O)C1=C(C)NC(C)=C(C(=O)Nc2ccccc2OC)C1c1ccc([N+](=O)[O-])cc1 |  | > 100 |  |  |  | > 100 |  | > 100 |  | > 100 |  | > 100 |  | > 100 |  | > 100 |  | > 100 |  | 
7 | CCOC(=O)CCc1c(C)c2c(OC(C)=O)cc(OC(C)=O)cc2oc1=O |  | > 100 |  | > 100 |  |  |  | 83.3 |  |  |  | > 100 |  | 91.1 |  |  |  | > 100 |  | 
8 | CC(=O)Oc1ccc(Nc2c3ccccc3nc3ccccc23)cc1 | 0.365 | 1.87 |  |  | 0.675 | 3.08 | 2.14 | 6.48 | 0.736 | 2.03 | 0.747 | 2.58 | 0.295 | 1.3 | 0.321 | > 100 | 1.86 | 11.9 | 0.435 | 3.19
9 | CCOC(=O)C1=C(C)N(N)C(=S)NC1c1ccc(C)cc1 (centres undefined) | 94.6 | > 100 | 0.932 | > 100 | 33.8 | > 100 | 22.4 | > 100 | 9.19 | > 100 |  |  | 24.4 | > 100 | 45.7 | > 100 | 73 | > 100 |  | 
10 | O=C1CSC(Cc2nc3ccccc3[nH]2)=N1 |  | 79.5 |  | 57.8 |  | 28.3 |  | 31.6 |  | 37.3 |  | > 100 |  |  |  | > 100 |  | 80.8 |  | 
11 | O=[N+]([O-])c1ccc(-n2nnc(C3=NCCCN3)c2-c2ccc(Cl)cc2)cc1 |  | > 100 |  | > 100 |  | > 100 |  | > 100 |  | > 100 |  | > 100 |  | > 100 |  | > 100 |  | > 100 |  | 
12 | O=C(CCC/C(CC(=O)c1ccc(Br)cc1)=N\O)Nc1ccccc1 |  | > 100 |  | > 100 |  | > 100 |  | > 100 |  | > 100 |  | > 100 |  | > 100 |  | > 100 |  | > 100 |  | 
13 | COC(=O)C12C3C4C5(C(=O)OC)C(C1C35C(=O)N(C(C)C)C(C)C)C42C(=O)N(C(C)C)C(C)C (centres undefined) |  | > 50 |  | > 50 |  | > 50 |  | > 50 |  | > 43.6 |  | > 43.6 |  | > 50 |  | > 50 |  | > 50 |  | 
14 | Cc1c(C2Nc3ccccc3C2C)[nH]c2ccccc12 (centres undefined) | 1.67 | 24.1 |  |  | 10.9 | 31.3 | 11.6 | 27.2 |  |  | 2.33 | 32.7 | 0.43 | 18.3 | 11.2 | 49.5 | 13.8 | 38 | 16.1 | 49.7
15 | CC(=O)Oc1ccccc1C(=O)N=C1[Se]CCCN1C(=O)c1ccccc1OC(C)=O | 1.85 | 3.69 |  |  | 2.01 | 4.74 |  |  | 1.7 | 4.37 | 3.58 | 11.4 | 2 | 5.5 | 1.92 | 4.96 |  |  | 2.07 | 6.32
16 | NC1CCCC[C@H]1N.N[C@@H]1CCCC[C@@H]1N.O=C(P(=O)([O-])[O-])P(=O)([O-])[O-].[Pt+4].[Pt+4] | > 100 | > 100 | > 100 | > 100 | > 100 | > 100 | > 100 | > 100 | > 100 | > 100 | 38.8 | > 100 | 20 | > 100 | 16 | > 100 | > 100 | > 100 |  | 
17 | COc1cc2c(cc1OCc1ccccc1)CNCC2 |  | > 100 |  | > 100 |  | > 100 |  | > 100 |  | > 100 |  | > 100 |  | > 100 |  | > 100 |  | > 100 |  | 
18 | CC(C)(C)C(=O)/C=C/c1ccc(Oc2ccccc2)cc1 |  | 94.3 |  |  |  | 36.2 |  |  |  |  |  | 36.1 |  | 43.9 |  | 42.4 |  | 68.1 |  | 

From PubChem BioAssay (NCI)
